The source of these data is PMC9781003, “Two Antenna-Enriched Odorant Binding Proteins in Dioryctria abietella Tuned to General Odorants and Insecticides” (Insects, 2022).

One assay has as its target T1, DabiOBP5 (Dioryctria abietella, UniProt A0A8E6HS34).
T1 sequence (A0A8E6HS34 19-139): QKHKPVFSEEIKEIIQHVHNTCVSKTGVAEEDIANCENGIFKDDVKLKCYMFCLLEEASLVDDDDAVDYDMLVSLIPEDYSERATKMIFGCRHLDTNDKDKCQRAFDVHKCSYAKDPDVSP
Put plainly: Competitive fluorescence binding assay with 1-NPN probe, recombinant DabiOBP5. The text has this:
In the binding assays, we selected 100 compounds derived from host/non-host plants and man-made insecticides widely used for the control of lepidopteran pests, representing 88 general odorants (21 esters, 21 alcohols, 14 aldehydes, 13 alkenes, seven ketones, 11 alkanes and one acid) and 12 insecticides. These compounds and N-phenyl-1-naphthylamine (1-NPN) were purchased from Aladdin and Sigma-Aldrich, with the highest available purity. […] The concentrations of the work solution for each ligand and 1-NPN were set at 1 mM.
In order to measure the binding properties of the DabiOBPs to the 100 ligands, competitive binding assays were performed on a RF5301PC fluorescence spectrophotometer (Shimadzu, Japan). The concentrations of DabiOBPs and the fluorescent probe 1-NPN were set at 2 μM. […] Accordingly, binding constants (K1-NPN) of the DabiOBPs and 1-NPN were calculated using GraphPad Prism 7 (GraphPad Software Inc., San Diego, CA). […] For the ligands replacing over a half of 1-NPN fluorescence (50%) at 20 μM, three replicates were performed. The excitation wavelength was set at 337 nm and the emission peaks were recorded at around 400 nm.

The subject of another assay is DabiOBP14. The format is binding, Dioryctria abietella. The following applies: for OBP14 F.D. (%) fluorescence displacement percent: ligand at 20 μM, DabiOBP14/1-NPN each 2 μM, Tris-HCl pH 7.4, NB = no binding; for Ki: competitive displacement of 1-NPN, three replicates, mean ± SE, read-out: OBP14 Ki (dissociation constant). Here is the method: In the binding assays, we selected 100 compounds derived from host/non-host plants and man-made insecticides widely used for the control of lepidopteran pests, representing 88 general odorants (21 esters, 21 alcohols, 14 aldehydes, 13 alkenes, seven ketones, 11 alkanes and one acid) and 12 insecticides. These compounds and N-phenyl-1-naphthylamine (1-NPN) were purchased from Aladdin and Sigma-Aldrich, with the highest available purity. They were first diluted into 100 mM, using methanol (HPLC purity grade, ≥99.9%) as a stock solution. The concentrations of the work solution for each ligand and 1-NPN were set at 1 mM.
In order to measure the binding properties of the DabiOBPs to the 100 ligands, competitive binding assays were performed on a RF5301PC fluorescence spectrophotometer (Shimadzu, Japan). The concentrations of DabiOBPs and the fluorescent probe 1-NPN were set at 2 μM. The binding of DabiOBPs to 1-NPN in 20 mM Tris-HCl buffer (pH 7.4) was measured by adding final concentrations of 2–16 μM 1-NPN. Accordingly, binding constants (K1-NPN) of the DabiOBPs and 1-NPN were calculated using GraphPad Prism 7 (GraphPad Software Inc., San Diego, CA). The binding of the DabiOBPs to various ligands was conducted by adding different concentrations of ligands (2, 4, 6, 8, 12, 16 and 20 μM) into the DabiOBP5/1-NPN (each 2 μM) or DabiOBP14/1-NPN (each 2 μM) mixtures. For the ligands replacing over a half of 1-NPN fluorescence (50%) at 20 μM, three replicates were performed. The excitation wavelength was set at 337 nm and the emission peaks were recorded at around 400 nm. The dissociation constants (Ki) of the tested ligands to DabiOBPs were computed, using the equation: Ki = [IC50]/(1 + [1-NPN]/K1-NPN), where [1-NPN] was the free concentration of 1-NPN and IC50 was the concentration of ligands replacing 50% of 1-NPN fluorescence.

[1] abbreviates: ligand at 20 μM; DabiOBP5/1-NPN each 2 μM; Tris-HCl pH 7.4; NB = no binding; read-out: OBP5 F.D. (%) fluorescence displacement percent.
[2] abbreviates: ligand at 20 μM; DabiOBP5/1-NPN each 2 μM; Tris-HCl pH 7.4; NB = no binding.

Like-named read-outs stand apart in the source and are kept apart here.

Consider `CCCCCCCCCCOC(C)=O` [Decyl acetate], for which the inhibition at 20 µM on DabiOBP5 (setting [1]) was found to be 26.2%. For the same compound, in the assay with DabiOBP14, the “OBP14 F.D. (%) fluorescence displacement percent” value is 15.15%.
In the same order, the values of `CC(C)=CCC/C(C)=C/CO` [Geraniol] are 32.9% and 28.67%.
The corresponding values for `CCCCCCCCOC(C)=O` [Octyl acetate] are 35.4% and 30.09%.
The corresponding values for `COc1cc(C=O)cc(OC)c1O` [Syringaldehyde] are 38.5% and 34.32%.
Take `CCOCn1c(-c2ccc(Cl)cc2)c(C#N)c(Br)c1C(F)(F)F` [Chlorfenapyr]: the inhibition at 20 µM on DabiOBP5 (pH 7.4, read-out: OBP5 F.D. (%) fluorescence displacement percent) was determined as 62%. Besides, the Ki (as a rule, the dissociation constant of the complex between target and ligand, obtained from inhibition or displacement) is 8.16 ± 0.55 µM on DabiOBP5 (read-out: OBP5 Ki (dissociation constant); competitive displacement of 1-NPN; three replicates; mean ± SE), less than 13 µM on DabiOBP5 (read-out: OBP5 Ki (dissociation constant); competitive displacement of 1-NPN; three replicates; mean ± SE; listed as chlorfenapyr), less than 13 µM on DabiOBP14 (listed as chlorfenapyr) and 8.41 ± 0.42 µM on DabiOBP14. Also, the “OBP14 F.D. (%) fluorescence displacement percent” value with DabiOBP14 came out at 60.84%.
Turning to `CCCCC/C=C\C=C\C(=O)OCC` [Ethyl-(2E,4Z)-decadienoate], the Ki at DabiOBP5 (competitive displacement of 1-NPN; three replicates; mean ± SE; listed as ethyl-(2E,4Z)-decadienoate; read-out: OBP5 Ki (dissociation constant)) is less than 13 µM; on DabiOBP5 (competitive displacement of 1-NPN; three replicates; mean ± SE; read-out: OBP5 Ki (dissociation constant)), 5.67 ± 0.55 µM; on DabiOBP14 (listed as ethyl-(2E,4Z)-decadienoate), less than 13 µM; on DabiOBP14, 6.45 ± 0.43 µM. For the same compound, the “OBP5 F.D. (%) fluorescence displacement percent” value on DabiOBP5 (setting [2]) was 69.83%. The “OBP14 F.D. (%) fluorescence displacement percent” value in the assay with DabiOBP14 stood at 68.07%.
With `CCOC(=O)c1ccccc1` [Ethyl benzoate], the inhibition at 20 µM on DabiOBP5 (setting [1]) amounted to 29.4%. Further, the “OBP14 F.D. (%) fluorescence displacement percent” value with DabiOBP14 is given as 30.02%.
The corresponding values for `CCCCCCCCCCCCCCCCCCC` [Nonadecane] are 27.7% and 15.30%.
On to `O=C1CCC[C@@H]2[C@H]3CCCN4CCC[C@@H](CN12)[C@@H]34` [Matrine], for which, on DabiOBP5 (setting [1]), the inhibition at 20 µM is 29%. Also, in the assay with DabiOBP14, the “OBP14 F.D. (%) fluorescence displacement percent” value came to 29.59%.
In the same order, the values of `C=CC(C)(O)CCC=C(C)CCC=C(C)C` (mixture of isomers) [Nerolidol] are 34.6% and 37.52%.
For Abamectin, the “OBP5 F.D. (%) fluorescence displacement percent” value at DabiOBP5 (setting [2]) worked out at 24.16%. In addition, the “OBP14 F.D. (%) fluorescence displacement percent” value with DabiOBP14 is listed as 4.33%.
As to `O=C(NC(=O)c1c(F)cccc1F)Nc1ccc(Cl)cc1` [Diflubenzuron], on DabiOBP5 (setting [1]), the inhibition at 20 µM amounted to 21.4%. The “OBP14 F.D. (%) fluorescence displacement percent” value in the assay with DabiOBP14 is reported as 30.33%.
In the same order, the values of `CCCCCC=O` [Hexanal] are 39.3% and 32.96%.
The corresponding values for `OCCc1ccccc1` [Phenethyl alcohol] are 37.6% and 10.00%.
In the same order, the values of `CC(C)=CCCC(C)O` (stereo not drawn) [6-Methyl-5-hepten-2-ol] are 41.4% and 33.49%.
Turning to `CCCCC(C)=O` [2-Hexanone], the inhibition at 20 µM at DabiOBP5 (setting [1]) was found to be 43.1%. For the same compound, in the assay with DabiOBP14, the “OBP14 F.D. (%) fluorescence displacement percent” value is on record as 27.57%.
With `O=C(OCc1ccccc1)c1ccccc1` [Benzyl benzoate], the inhibition at 20 µM on DabiOBP5 (setting [1]) is 47.8%. For the same compound, in the assay on DabiOBP14, the “OBP14 F.D. (%) fluorescence displacement percent” value was 49.39%.
In the same order, the values of `O=[N+]([O-])NC1=NCCN1Cc1ccc(Cl)nc1` [Imidacloprid] are 22.5% and 39.56%.
With `CC1=CCC2CC1C2(C)C` (stereo not drawn) [α-Pinene], the inhibition at 20 µM at DabiOBP5 (setting [1]) came to 25.1%. Besides, the “OBP14 F.D. (%) fluorescence displacement percent” value in the assay with DabiOBP14 came to 29.24%.
Take `CCCCCCCCCCCCC` [Tridecane]: the inhibition at 20 µM at DabiOBP5 (setting [1]) was determined as 5.52%.
Consider `C=CCCCCCCCCC` [1-Undecene], for which the inhibition at 20 µM at DabiOBP5 (setting [1]) is 17.4%.
Still for that read-out and setting: then `CCCCCCCCCC` [Decane], with 20.2%; and `CCCCCCCCCCCO` [1-Undecanol], with 37.7%.
Regarding `C/C1=C\CC/C(C)=C/CC(C)(C)/C=C/C1` [α-Caryophyllene], the “OBP5 F.D. (%) fluorescence displacement percent” value at DabiOBP5 (setting [2]) worked out at 15.42%.
Regarding `CCCCCCCC` [Octane], the inhibition at 20 µM at DabiOBP5 (setting [1]) was determined as 27.9%.
The same measure, in the same setting: then `C=C1CC/C=C(\C)CC[C@@H]2[C@@H]1CC2(C)C` [β-Caryophyllene], with 16.3%; and `CCCCCCCCC` [Nonane], with 22.2%.
